Results: patent publication US20060025474A1, “Bisphenyl compounds useful as vitamin D3 receptor agonists” (priority 2004, published 2006)

tested on: ECAC2 mRNA in Caco-2 cells; format: cell-based
Protocol: The mRNA Expression Assay of ECAC2 in Caco-2 Cells
The dispersed cells were plated in 48-well plate at a concentration of 6.3×10^4 cells/well and incubated for 4 days at 37° C. The culture medium (Dulbecco's Modified Eagle Medium (D-MEM) without NaHCO3 with 44 mM NaHCO3, 1 mM non-essential amino acids, and 2 mM L-glutamine, 90%; fetal bovine serum, 10%) was then replaced with the same medium containing various concentrations of LG190178 (the compound disclosed in WO00/10958 and the corresponding U.S. Pat. No. 6,218,430 B1) or the compounds of the present invention, and cells were cultured for 1 day at 37° C. The culture medium containing the compounds was changed twice per day.
Total RNA Isolation from Caco-2 Cell
Total RNA was isolated from Caco-2 cell following ABI PRISM™ 6100 Nucleic Acid PrepStation protocol from Applied Biosystems.
Real Time RT-PCR Assay of ECAC2
ECAC2 mRNA expression was determined using TaqMan One-step RT-PCR Master Mix Reagents Kit and PRISM7000 systems from Applied Biosystems.
Primer information and cycle conditions are 1)ECAC2, forward 5′-[…]-3′, reverse 5′-GTCCTCTGTCTGGMGATGA-3′, Taqman probe 5′-[…]-3′, 55 cycles, annealing temperature (Ta)=60° C.; 2)GAPDH, forward 5′-GMGGTGMGGTCGGAGTC-3′, reverse 5′-GMGATGGTGATGGGATTTC-3′, Taqman probe 5′-[…]-3′, 55 cycles, Ta=60° C. ECAC2 mRNA values were normalized for the expression of GAPDH mRNA within each sample.
Comparison of ECAC2 mRNA Value
The EC50 values of ECAC2 mRNA values were analyzed by Emax models. The ECAC2 mRNA ratio was calculated as the ratio of the EC50 value of the compounds to that of LG190178. ECAC2 is a channel-like transporter mediating intestinal calcium absorption. It is described in J Biol Chem. Aug. 6, 1999; 274(32):22739-46 for example.

| Structure (SMILES) | ECaC-2 mRNA induction activity in Caco-2 cells [%] |
| --- | --- |
| CCc1cc(C(CC)(CC)c2ccc(C(=O)N[C@H](C)C(=O)O)s2)ccc1OCC(C)(O)C(C)(C)C (single isomer, unassigned) [Compound A, reference compound] | 123 |
| CCc1cc(C(CC)(CC)c2ccc(C(=O)N[C@H](C)C(=O)O)s2)ccc1OCC(C)(O)C(C)(C)C (single isomer, unassigned) [Compound B, reference compound] | 15 |
| CCc1cc(C(CC)(CC)c2ccc(C(=O)N[C@@H](C)C(=O)O)s2)ccc1OCC(C)(O)C(C)(C)C (single isomer, unassigned) [Compound C, reference compound] | 34 |
| CCc1cc(C(CC)(CC)c2ccc(C(=O)N[C@@H](C)C(=O)O)s2)ccc1OCC(C)(O)C(C)(C)C (single isomer, unassigned) [Compound D, reference compound] | 14 |
| C=C1/C(=C\C=C2/CCC[C@]3(C)[C@@H]([C@H](C)CCCC(C)(C)O)CC[C@@H]23)C[C@@H](O)C[C@@H]1O [1,25(OH)2D3, reference compound] | 556 |
| CCC(CC)(c1ccc(C#CC(O)(C(F)(F)F)C(F)(F)F)c(C)c1)c1ccc(OC[C@@H](O)CCC(=O)O)c(C)c1 [Example 2, (S)-5-(4-{1-ethyl-1-[3-methyl-4-(4,4,4-trifluoro-3-hydroxy-3-trifluoromethyl-but-1-ynyl)-phenyl]-propyl}-2-methyl-phenoxy)-4-hydroxy-pentanoic acid] | 49 |
| CCC(CC)(c1ccc(C#CC(O)C(C)(C)C)c(C)c1)c1ccc(OC[C@@H](O)CCC(=O)O)c(C)c1 (stereo partly drawn) [Example 27, 5-(4-{1-ethyl-1-[4-(3-hydroxy-4,4-dimethyl-pent-1-ynyl)-3-methyl-phenyl]-propyl}-2-methyl-phenoxy)-4(S)-hydroxy-pentanoic acid] | 114 |
| CCC(CC)(c1ccc(CCC(O)(C(F)(F)F)C(F)(F)F)c(C)c1)c1ccc(OC[C@@H](O)CCC(=O)O)c(C)c1 [Example 31, (S)-5-(4-{1-ethyl-1-[3-methyl-4-(4,4,4-trifluoro-3-hydroxy-3-trifluoromethyl-butyl)-phenyl]-propyl}-2-methyl-phenoxy)-4-hydroxy-pentanoic acid] | 161 |
| CCC(CC)(c1ccc(/C=C/C2(O)CCCC2)c(C)c1)c1ccc(OC[C@@H](O)CCC(=O)O)c(C)c1 [Example 35, (S)-5-[4-(1-ethyl-1-{4-[(E)-2-(1-hydroxy-cyclopentyl)-vinyl]-3-methyl-phenyl}-propyl)-2-methyl-phenoxy]-4-hydroxy-pentanoic acid] | 538 |
| CCC(CC)(c1ccc(/C=C/C2(O)CCCCC2)c(C)c1)c1ccc(OC[C@@H](O)CCC(=O)O)c(C)c1 [Example 37, (S)-5-[4-(1-ethyl-1-{4-[(E)-2-(1-hydroxy-cyclohexyl)-vinyl]-3-methyl-phenyl}-propyl)-2-methyl-phenoxy]-4-hydroxy-pentanoic acid] | 639 |
| CCC(CC)(c1ccc(/C=C/C(O)(C(F)(F)F)C(F)(F)F)c(C)c1)c1ccc(OC[C@@H](O)CCCC(=O)O)c(C)c1 [Example 56, (S)-6-(4-{1-Ethyl-1-[3-methyl-4-((E)4,4,4-trifluoro-3-hydroxy-3-trifluoromethyl-but-1-enyl)-phenyl]-propyl}-2-methyl-phenoxy)-5-hydroxy-hexanoic acid] | 276 |
| CCC(CC)(c1ccc(C#CC(O)(C(F)(F)F)C(F)(F)F)c(C)c1)c1ccc(OC[C@H](O)CCCC(=O)O)c(C)c1 [Example 60, (R)-6-(4-{1-ethyl-1-[3-methyl4-(4,4,4-trifluoro-3-hydroxy-3-trifluoromethyl-but-1-ynyl)-phenyl]-propyl}-2-methyl-phenoxy)-5-hydroxy-hexanoic acid] | 235 |

Further lines, results first:

| ECaC-2 mRNA induction activity in Caco-2 cells [%] | Structure (SMILES) |
| --- | --- |
| 36 | CCC(O)(/C=C/c1ccc(C(CC)(CC)c2ccc(OC[C@@H](O)CCC(=O)O)c(C)c2)cc1C)CC [Example 1, (S)-5-(4-{1-ethyl-1-[4-((E)-3-ethyl-3-hydroxy-pent-1-enyl)-3-methyl-phenyl]-propyl}-2-methyl-phenoxy)-4-hydroxy-pentanoic acid] |
| 2093 | CCC(CC)(c1ccc(/C=C/C(O)C(C)(C)C)c(C)c1)c1ccc(OC[C@@H](O)CCC(=O)O)c(C)c1 (stereo partly drawn) [Example 28, 5-(4-{1-ethyl-1-[4-((E)-3-hydroxy-4,4-dimethyl-pent-1-enyl)-3-methyl-phenyl]-propyl}-2-methyl-phenoxy)-4(S)-hydroxy-pentanoic acid] |
| 1777 | CCC(CC)(c1ccc(/C=C/C(O)(C(F)(F)F)C(F)(F)F)c(C)c1)c1ccc(OC[C@@H](O)CCC(=O)O)c(C)c1 [Example 30, (S)-5-(4-{1-ethyl-1-[3-methyl-4-((E)-4,4,4-trifluoro-3-hydroxy-3-trifluoromethyl-but-1-enyl)-phenyl]-propyl}-2-methyl-phenoxy)-4-hydroxy-pentanoic acid] |
| 96 | CCC(O)(/C=C/c1ccc(C(CC)(CC)c2ccc(OC[C@H]3CCC(=O)O3)c(C)c2)cc1C)CC [Example 44, (R)-5-(4-{1-ethyl-1-[4-((E)-3-ethyl-3-hydroxy-pent-1-enyl)-3-methyl-phenyl]-propyl}-2-methyl-phenoxymethyl)-dihydro-furan-2-one] |
| 519 | CCC(CC)(c1ccc(/C=C/C(O)(C(F)(F)F)C(F)(F)F)c(C)c1)c1ccc(OC[C@H]2CCC(=O)O2)c(C)c1 [Example 48, (R)-5-(4-{1-ethyl-1-[3-methyl-4-((E)-4,4,4-trifluoro-3-hydroxy-3-trifluoromethyl-but-1-enyl)-phenyl]-propyl}-2-methyl-phenoxymethyl)-dihydro-furan-2-one] |
| 987 | CCC(CC)(c1ccc(/C=C/C(O)(C(F)(F)F)C(F)(F)F)c(C)c1)c1ccc(OC[C@H](O)CCC(=O)O)c(C)c1 [Example 49, 5-(4-{1-ethyl-1-[3-methyl4-((E)4,4,4-trifluoro-3-hydroxy-3-trifluoromethyl-but-1-enyl)-phenyl]-propyl}-2-methyl-phenoxy)4(R)-hydroxy-pentanoic acid] |
| 1227 | CCC(CC)(c1ccc(/C=C/C(O)(C(F)(F)F)C(F)(F)F)c(C)c1)c1ccc(OC[C@@H](O)CC(=O)O)c(C)c1 [Example 52, (S)4-(4-{1-ethyl-1-[3-methyl-4-((E)A4,4,4-trifluoro-3-hydroxy-3-trifluoromethyl-but-1-enyl)-phenyl]-propyl}-2-methyl-phenoxy)-3-hydroxy-butyric acid] |
| 172 | CCC(CC)(c1ccc(/C=C/C(O)(C(F)(F)F)C(F)(F)F)c(C)c1)c1ccc(OC[C@H](O)CC(=O)O)c(C)c1 [Example 54, (R)-4-(4-{1-ethyl-1-[3-methyl4-((E)-4,4,4-trifluoro-3-hydroxy-3-trifluoromethyl-but-1-enyl)-phenyl]-propyl}-2-methyl-phenoxy)-3-hydroxy-butyric acid] |
| 662 | CCC(CC)(c1ccc(/C=C/C(O)(C(F)(F)F)C(F)(F)F)c(C)c1)c1ccc(OC[C@@H]2CCCC(=O)O2)c(C)c1 [Example 55, (S)-6-(4-{1-ethyl-1-[3-methyl-4-((E)-4,4,4-trifluoro-3-hydroxy-3-trifluoromethyl-but-1-enyl)-phenyl]-propyl}-2-methyl-phenoxymethyl)-tetrahydro-pyran-2-one] |
| 24 | CCC(CC)(c1ccc(C#CC(O)(C(F)(F)F)C(F)(F)F)c(C)c1)c1ccc(OC[C@@H]2CCCC(=O)O2)c(C)c1 [Example 57, (S)-6-(4-{1-ethyl-1-[3-methyl4-(4,4,4-trifluoro-3-hydroxy-3-trifluoromethyl-but-1-ynyl)-phenyl]-propyl}-2-methyl-phenoxymethyl)-tetrahydro-pyran-2-one] |
| 117 | CCC(CC)(c1ccc(C#CC(O)(C(F)(F)F)C(F)(F)F)c(C)c1)c1ccc(OC[C@H]2CCCC(=O)O2)c(C)c1 [Example 59, (R)-6-(4-{1-Ethyl-1-[3-methyl4-(4,4,4-trifluoro-3-hydroxy-3-trifluoromethyl-but-1-ynyl)-phenyl]-propyl}-2-methyl-phenoxymethyl)-tetrahydro-pyran-2-one] |
| 918 | CCC(CC)(c1ccc(/C=C/C(O)(C(F)(F)F)C(F)(F)F)c(C)c1)c1ccc(OC[C@H]2CCCC(=O)O2)c(C)c1 [Example 61, (R)-6-(4-{1-ethyl-1-[3-methyl4-((E)4,4,4-trifluoro-3-hydroxy-3-trifluoromethyl-but-1-enyl)-phenyl]-propyl}-2-methyl-phenoxymethyl)-tetrahydro-pyran-2-one] |
